{
  "source": "patent US6462083B1",
  "about": "“Suppository base” (priority 2001, dated 2002)",
  "origin": "cited, not measured here",
  "system": "blood flow to the site of administration",
  "conditions": "laser Doppler imaging; no species, dose or data printed",
  "data": [
    {"smiles": "CCCCCCCC/C=C\\CCCCCCCCCCCC(=O)O", "note": "[Erucic acid, (Z)-13-Docosenoic acid]", "values": [
      {"measurement": "blood flow to the site of administration", "value": "enhance blood flow to the site of administration"}
    ]}
  ]
}
